According to EP4603105A1, “PHARMACEUTICAL COMPOSITION CONTAINING CYCLIC COMPOUND HAVING SELECTIVE KRAS INHIBITORY EFFECT AGAINST HRAS AND NRAS” (CHUGAI SEIYAKU KABUSHIKI KAISHA, priority 2022, dated 2024):
*1 amine or outer side, *2 acyl side, *3 side chain or, on linkers, in order; H or OH if unused. Where a SMILES comes first, the peptide text is derived from it. Bridges are numbered along the chain shown (N, C = ends). [ ]: non-standard residue; d: D form. The star is where a group is joined. hPhe(3,5-F2-4-CF3) = N[C@@H](CCc1cc(F)c(C(F)(F)F)c(F)c1)C(=O)O; hPhe(3-Cl-4-CF3) = N[C@@H](CCc1ccc(C(F)(F)F)c(Cl)c1)C(=O)O; NPrPhe(4-CF3) = CCCN[C@@H](Cc1ccc(C(F)(F)F)cc1)C(=O)O; Piperazinyl(4-(3-oxetanyl)) = C1OCC1N1CCN(*)CC1; Abu(4,4,4-F3) = N[C@@H](CC(F)(F)F)C(=O)O; NMeGly(cPent) = CN[C@H](C(=O)O)C1CCCC1; Pro(4,4-F2) = O=C(O)[C@@H]1CC(F)(F)CN1; αMeCha = C[C@](N)(CC1CCCCC1)C(=O)O; X3 = CCC[C@](C)(N[*:1])C(=O)[*:2]; Hyp = O=C(O)[C@@H]1C[C@@H](O)CN1; NMeD = CN[C@@H](CC(=O)O)C(=O)O; NMeL = CN[C@@H](CC(C)C)C(=O)O; Morpholide = C1CN(*)CCO1; NMeA = CN[C@@H](C)C(=O)O; Ac5c = NC1(C(=O)O)CCCC1; Aze = O=C(O)[C@@H]1CCN1; Ac4c = NC1(C(=O)O)CCC1; NPrGly = CCCNCC(=O)O; NEtG = CCNCC(=O)O; Sar = CNCC(=O)O

Columns and labels:
[1] = molecular target: HRAS wild-type protein (Homo sapiens, UniProt P01112); assay: Binding to HRAS by surface plasmon resonance (SPR), KD and KD ratio to KRAS
Sequence of HRAS wild-type protein (P01112 whole entry): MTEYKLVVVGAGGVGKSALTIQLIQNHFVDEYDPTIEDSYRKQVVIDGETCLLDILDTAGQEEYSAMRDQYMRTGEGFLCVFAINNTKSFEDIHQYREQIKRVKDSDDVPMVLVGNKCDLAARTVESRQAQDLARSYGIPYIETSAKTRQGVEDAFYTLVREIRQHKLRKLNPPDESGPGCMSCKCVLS
In short: (§1)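 Biotinylated GDP-bound RAS was captured at about 100–300 RU. Running buffer: HBS pH 7.4, 10 mM MgCl2, 10 µM GDP, 1 mM DTT, 0.01% Tween 20, 4% DMSO.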

[2] = test system: human lung cancer strain NCI-H441; type: cell-based
In short: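 Step one: dispense the test compound in serial DMSO dilutions. Step three: add the reagent and measure […].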

[3] = molecular target: GDP-bound NRAS wild-type protein (Homo sapiens, UniProt P01111); assay: Binding to NRAS by surface plasmon resonance (SPR), KD and KD ratio to KRAS
Sequence of GDP-bound NRAS wild-type protein (P01111 whole entry): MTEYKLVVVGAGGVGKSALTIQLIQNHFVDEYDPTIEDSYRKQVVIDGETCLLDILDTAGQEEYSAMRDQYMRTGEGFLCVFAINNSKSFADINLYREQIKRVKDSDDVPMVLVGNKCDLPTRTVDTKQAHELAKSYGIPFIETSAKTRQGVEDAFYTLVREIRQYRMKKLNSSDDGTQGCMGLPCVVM
In short: as §1

[4] = ratio of KD for HRAS wild-type protein to KD for KRAS
[5] = ratio of KD for GDP-bound NRAS wild-type protein to KD for KRAS
[6] = ratio of the KD value with respect to HRAS wild-type protein to the KD value with respect to KRAS
[7] = ratio of the KD value with respect to GDP-bound NRAS wild-type protein to the KD value with respect to KRAS

CCCN1C(=O)[C@@H]2CCN2C(=O)[C@H](C)N(C)C(=O)[C@H]([C@@H](C)CC)NC(=O)[C@H](CC(C)C)N(C)C(=O)C[C@@H](C(=O)N2CCN(C3COC3)CC2)N(C)C(=O)[C@H](C2CCCC2)N(C)C(=O)C2(CCCC2)NC(=O)[C@@H]2CCCN2C(=O)[C@H](CCc2ccc(C(F)(F)F)c(Cl)c2)NC(=O)CN(C)C(=O)[C@@H]1Cc1ccc(C(F)(F)F)cc1 [PP0184] ([NMeL]I[NMeA][Aze][NPrPhe(4-CF3)][Sar][hPhe(3-Cl-4-CF3)]P[Ac5c][NMeGly(cPent)][NMeD]-{Piperazinyl(4-(3-oxetanyl))}; lactam N-11)
HRAS /KRAS [1, 4]: B (a compound having 3 or more and less than 10 is denoted as B)
IC50 [2]: 2.1 nM
NRAS /KRAS [3, 5]: C (A compound having a KD ratio of 0.1 or more and less than 3 is denoted as C)

CCCN1C(=O)[C@@H]2CCN2C(=O)CN(C)C(=O)[C@H]([C@@H](C)CC)NC(=O)[C@H](CC(C)C)N(C)C(=O)C[C@@H](C(=O)N2CCOCC2)N(C)C(=O)[C@H](C2CCCC2)N(C)C(=O)[C@](C)(CCC)NC(=O)[C@@H]2CCCN2C(=O)[C@H](CCc2cc(F)c(C(F)(F)F)c(F)c2)NC(=O)CN(C)C(=O)[C@@H]1Cc1ccc(C(F)(F)F)cc1 [PP0794] ([NMeL]I[Sar][Aze][NPrPhe(4-CF3)][Sar][hPhe(3,5-F2-4-CF3)]P[X3][NMeGly(cPent)][NMeD]-Morpholide; lactam N-11)
HRAS /KRAS [1, 4]: B (a compound having 3 or more and less than 10 is denoted as B)
IC50 [2]: 122 nM
NRAS /KRAS [3, 5]: C (A compound having a KD ratio of 0.1 or more and less than 3 is denoted as C)

CC[C@H](C)[C@@H]1NC(=O)[C@@H]2CCC/C=C/c3ccc(cc3)C[C@@H](C(=O)N(C)CC(=O)N[C@@H](CCc3ccc(Cl)c(Cl)c3)C(=O)N3CCC[C@H]3C(=O)NC3(CC(C)(C)C3)C(=O)N(C)[C@@H](C3CCCC3)C(=O)N(C)[C@H](C(=O)N3CCCC3)CC(=O)N2C)N2CC/C=C\C[C@@H](C2=O)N(C)C(=O)CN(C)C1=O [PP2602]
HRAS /KRAS [1, 4]: A (a compound having 10 or more and less than 20 is denoted as A)
IC50 [2]: 12.8 nM
NRAS /KRAS [3, 5]: A (a compound having 10 or more and less than 20 is denoted as A)

CCO[C@@H]1C[C@H]2C(=O)NC3(CCCC3)C(=O)N(C)[C@@H](C3CCCC3)C(=O)N(C)[C@H](C(=O)N(C)C)CC(=O)N(C)[C@@H](CC(C)C)C(=O)N[C@@H]([C@@H](C)CC)C(=O)N(C)CC(=O)N(C)[C@H]3CC(C)=CCN(C3=O)[C@@H](Cc3ccc(C(F)(F)F)cc3)C(=O)N(C)CC(=O)N[C@@H](CCc3cc(F)c(C(F)(F)F)c(F)c3)C(=O)N2C1 [PP1031]
HRAS /KRAS [1, 4]: C (A compound having a KD ratio of 0.1 or more and less than 3 is denoted as C)
IC50 [2]: 86.2 nM
NRAS /KRAS [3, 5]: C (A compound having a KD ratio of 0.1 or more and less than 3 is denoted as C)

CCCN1C(=O)CN(C)C(=O)CN(C)C(=O)[C@H]([C@@H](C)CC)NC(=O)[C@H](CC(C)C)N(C)C(=O)C[C@@H](C(=O)N2CCOCC2)N(C)C(=O)[C@H](C2CCCC2)N(C)C(=O)[C@](C)(CC2CCCCC2)NC(=O)[C@@H]2CCCN2C(=O)[C@H](CCc2cc(F)c(C(F)(F)F)c(F)c2)NC(=O)CN(C)C(=O)[C@@H]1Cc1ccc(C(F)(F)F)cc1 [PP0760] ([NMeL]I[Sar][Sar][NPrPhe(4-CF3)][Sar][hPhe(3,5-F2-4-CF3)]P[αMeCha][NMeGly(cPent)][NMeD]-Morpholide; lactam N-11)
HRAS /KRAS [1, 6]: C (A compound having a KD ratio of 0.1 or more and less than 3 is denoted as C)
IC50 [2]: 310 nM
NRAS /KRAS [3, 7]: B (a compound having 3 or more and less than 10 is denoted as B)

CCCN1C(=O)[C@@H]2CCN2C(=O)[C@H](C)N(C)C(=O)[C@H]([C@@H](C)CC)NC(=O)[C@H](CC(C)C)N(C)C(=O)C[C@@H](C(=O)N2CCOCC2)NC(=O)[C@H](C2CCCC2)N(C)C(=O)C2(CCCC2)NC(=O)[C@@H]2C[C@@H](OCC)CN2C(=O)[C@H](CCc2ccc(C(F)(F)F)c(Cl)c2)NC(=O)CN(C)C(=O)[C@@H]1Cc1ccc(C(F)(F)F)cc1 [PP0347] ([NMeL]I[NMeA][Aze][NPrPhe(4-CF3)][Sar][hPhe(3-Cl-4-CF3)][Hyp](Et)[Ac5c][NMeGly(cPent)]D-Morpholide; lactam N-11)
HRAS /KRAS [1, 4]: B (a compound having 3 or more and less than 10 is denoted as B)
IC50 [2]: 10.9 nM
NRAS /KRAS [3, 5]: C (A compound having a KD ratio of 0.1 or more and less than 3 is denoted as C)

CCCN1C(=O)CN(C)C(=O)CN(C)C(=O)[C@H]([C@@H](C)CC)NC(=O)[C@H](CC(C)C)N(C)C(=O)C[C@@H](C(=O)N(C)C)N(C)C(=O)[C@H](C2CCCC2)N(C)C(=O)C2(CCC2)NC(=O)[C@@H]2CC(F)(F)CN2C(=O)[C@H](CCc2ccc(C(F)(F)F)c(Cl)c2)NC(=O)CN(C)C(=O)[C@@H]1Cc1ccc(C(F)(F)F)cc1 [PP0414] ([NMeL]I[Sar][Sar][NPrPhe(4-CF3)][Sar][hPhe(3-Cl-4-CF3)][Pro(4,4-F2)][Ac4c][NMeGly(cPent)][NMeD]-NMe2; lactam N-11)
HRAS /KRAS [1, 6]: C (A compound having a KD ratio of 0.1 or more and less than 3 is denoted as C)
IC50 [2]: 1.9 nM
NRAS /KRAS [3, 7]: B (a compound having 3 or more and less than 10 is denoted as B)

CCCN1C(=O)[C@@H]2CCN2C(=O)[C@H](C)N(C)C(=O)[C@H](CC(F)(F)F)NC(=O)[C@H](CC(C)C)N(C)C(=O)C[C@@H](C(=O)N2CCOCC2)N(C)C(=O)[C@H](C2CCCC2)N(C)C(=O)C2(CCCC2)NC(=O)[C@@H]2CCCN2C(=O)[C@H](CCc2ccc(C(F)(F)F)c(Cl)c2)NC(=O)CN(C)C(=O)[C@@H]1Cc1ccc(C(F)(F)F)cc1 [PP0270] ([NMeL][Abu(4,4,4-F3)][NMeA][Aze][NPrPhe(4-CF3)][Sar][hPhe(3-Cl-4-CF3)]P[Ac5c][NMeGly(cPent)][NMeD]-Morpholide; lactam N-11)
HRAS /KRAS [1, 4]: B (a compound having 3 or more and less than 10 is denoted as B)
IC50 [2]: 8.5 nM
NRAS /KRAS [3, 5]: C (A compound having a KD ratio of 0.1 or more and less than 3 is denoted as C)

CC[C@H](C)[C@@H]1NC(=O)[C@H](CC(C)C)N(C)C(=O)C[C@@H](C(=O)N(C)C)N(C)C(=O)[C@H](C2CCCC2)N(C)C(=O)C2(CCCC2)NC(=O)[C@@H]2CCCN2C(=O)[C@H](CCc2cc(F)c(C(F)(F)F)c(F)c2)NC(=O)CN(C)C(=O)[C@H](Cc2ccc(C(F)(F)F)cc2)N2CCCCC[C@@H](C2=O)N(C)C(=O)CN(C)C1=O [PP0507]
HRAS /KRAS [1, 6]: B (a compound having 3 or more and less than 10 is denoted as B)
IC50 [2]: 62.1 nM
NRAS /KRAS [3, 7]: B (a compound having 3 or more and less than 10 is denoted as B)

CCO[C@@H]1C[C@H]2C(=O)NC3(CCC3)C(=O)N(C)[C@@H](C3CCCC3)C(=O)N(C)[C@H](C(=O)N3CCOCC3)CC(=O)N(C)[C@@H](COC)C(=O)N[C@@H]([C@@H](C)CC)C(=O)N3CC[C@H]3C(=O)N(C)[C@H]3CCCCCN(C3=O)[C@@H](Cc3ccc(C(F)(F)F)cc3)C(=O)N(C)CC(=O)N[C@@H](CCc3cc(F)c(C(F)(F)F)c(F)c3)C(=O)N2C1 [PP0863]
HRAS /KRAS [1, 4]: B (a compound having 3 or more and less than 10 is denoted as B)
IC50 [2]: 228 nM
NRAS /KRAS [3, 5]: B (a compound having 3 or more and less than 10 is denoted as B)

CCCN1C(=O)CN(C)C(=O)CN(CC)C(=O)[C@H]([C@@H](C)CC)NC(=O)[C@H](CC(C)C)N(C)C(=O)C[C@@H](C(=O)N(C)C)N(C)C(=O)[C@H](C2CCCC2)N(C)C(=O)C2(CCC2)NC(=O)[C@@H]2CC(F)(F)CN2C(=O)[C@H](CCc2ccc(C(F)(F)F)c(Cl)c2)NC(=O)CN(C)C(=O)[C@@H]1Cc1ccc(C(F)(F)F)cc1 [PP0426] ([NMeL]I[NEtG][Sar][NPrPhe(4-CF3)][Sar][hPhe(3-Cl-4-CF3)][Pro(4,4-F2)][Ac4c][NMeGly(cPent)][NMeD]-NMe2; lactam N-11)
HRAS /KRAS [1, 6]: C (A compound having a KD ratio of 0.1 or more and less than 3 is denoted as C)
IC50 [2]: 4.8 nM
NRAS /KRAS [3, 7]: C (A compound having a KD ratio of 0.1 or more and less than 3 is denoted as C)

CCO[C@@H]1C[C@H]2C(=O)NC3(CC(C)(C)C3)C(=O)N(C)[C@@H](C3CCCC3)C(=O)N(CC)[C@H](C(=O)N(C)C)CC(=O)N(C)[C@@H](CC)C(=O)N[C@@H]([C@@H](C)CC)C(=O)N(C)CC(=O)N(C)[C@H]3C/C=C\CCN(C3=O)[C@@H](Cc3ccc(C(F)(F)F)cc3)C(=O)N(C)CC(=O)N[C@@H](CCc3cc(F)c(C(F)(F)F)c(F)c3)C(=O)N2C1 [PP1768]
HRAS /KRAS ([1]; ratio of KD value for HRAS wild-type protein to KD value for KRAS (SPR)): A (a compound having 10 or more and less than 20 is denoted as A)
IC50 [2]: 4.9 nM
NRAS /KRAS ([3]; ratio of KD value for GDP-bound NRAS wild-type protein to KD value for KRAS (SPR)): A (a compound having 10 or more and less than 20 is denoted as A)

CCCN1CC(=O)NC2(CCCC2)C(=O)N(C)[C@@H](C2CCCC2)C(=O)N(C)[C@H](C(=O)N2CCOCC2)CC(=O)N(C)[C@@H](CC(C)C)C(=O)N[C@@H]([C@@H](C)CC)C(=O)N(CC)CC(=O)N(C)CC(=O)N(CCC)[C@@H](Cc2ccc(C(F)(F)F)cc2)C(=O)N(C)CC(=O)N[C@@H](CCc2ccc(C(F)(F)F)c(Cl)c2)C1=O [PP0301] ([NMeL]I[NEtG][Sar][NPrPhe(4-CF3)][Sar][hPhe(3-Cl-4-CF3)][NPrGly][Ac5c][NMeGly(cPent)][NMeD]-Morpholide; lactam N-11)
HRAS /KRAS [1, 4]: C (A compound having a KD ratio of 0.1 or more and less than 3 is denoted as C)
IC50 [2]: 88.2 nM
NRAS /KRAS [3, 5]: B (a compound having 3 or more and less than 10 is denoted as B)
